In publication PMC10786919, “Design-rules for stapled peptides with in vivo activity and their application to Mdm2/X antagonists” (Nature Communications, 2024):
Converted amounts (≈) assume the structure as drawn. Read-outs that look alike come from different tables or passages of the source. Positions of bridges follow the written chain, without caps; N, C: chain ends. Non-standard residues stand in square brackets, D forms with d. Residues, ends and D or L forms follow the SMILES beside them. Lys(N3) = [N-]=[N+]=NCCCC[C@H](N)C(=O)O; R8 = C=CCCCCCC[C@@](C)(N)C(=O)O; Cba = N[C@@H](CC1CCC1)C(=O)O; S5 = C=CCCC[C@](C)(N)C(=O)O; Ahx = NCCCCCC(=O)O; βAla = NCCC(=O)O; Sar = CNCC(=O)O

Tests used:
[1] = Lactate dehydrogenase (LDH) release assay; assay type: cell-based
Method: (§1) HCT116 cells were stably transfected with a p53 responsive β-lactamase reporter and expanded in McCoy’s 5 A Medium with 10% fetal bovine serum (FBS), Blasticidin, and Penicillin/Streptomycin and then transferred to 1.5 ml freezing vials and stored under liquid nitrogen in growth media containing 5% DMSO. […] The cells were then seeded into a 384-well plate at a density of 8000 cells per well. […] The final working concentration of DMSO was 0.5%. Lactate dehydrogenase release was detected using the CytoTox-ONE Homogenous Membrane Integrity Assay Kit (Promega), as per the manufacturer’s instructions. Measurements were carried out using the Tecan plate reader. […] Measurements were taken a minimum of three times (biological replicates) and values are reported as geometric means of the replicates.

[2] = tested on: HCT116 cells; assay: Lactate dehydrogenase (LDH) release assay; assay type: cell-based
Method: as §1

[3] = Solubility assay (kinetic solubility, PBS pH 7); assay type: physicochemical; details: pH 7, PBS; for solubility kinetic: pH 7, aqueous buffer, kinetic from dmso stock, read-out: Solubility
Method: The standard reference solutions were prepared by diluting the 10 mM stock in 10:80:10 solution of acetonitrile:methanol:DMSO to 100 µM.
The solubility value is calculated by the following equation:
Solubility [µM] = (Peak area of sample/ Peak area of standard) (Standard concentration)

[4] = Experimental LogD (partition coefficient); details: for logD: not stated, Partition Coeff LogD

SMILES: CC(=O)N[C@@H](CCCCN=[N+]=[N-])C(=O)N[C@@H](CCCNC(=N)N)C(=O)N[C@@H](CCCNC(=N)N)C(=O)NCCCCCC(=O)N[C@H](C(=O)N[C@@H](CO)C(=O)N[C@@H](Cc1ccccc1)C(=O)N[C@]1(C)CCCCCCC=CCCC[C@@](C)(C(=O)N[C@@H](CCC(=O)O)C(=O)N[C@@H](CC(N)=O)C(=O)N[C@@H](Cc2ccccc2)C(N)=O)NC(=O)[C@H](CC(C)C)NC(=O)[C@H](CC(C)C)NC(=O)[C@H](C)NC(=O)[C@H](Cc2c[nH]c3ccccc23)NC(=O)[C@H](Cc2ccc(O)cc2)NC(=O)[C@H](CCC(=O)O)NC1=O)[C@@H](C)O [MP-083] (Ac-[Lys(N3)]RR[Ahx]TSF[R8]EYWALL[S5]ENF-NH2; staple 8-15)
- EC50 ([1]; LDH: Cytotoxicity assay EC50): > 50 µM
- LDH: Cytotoxicity assay % Effect [2]: 0.165%
- solubility kinetic [3]: 4 µM (≈ 9.73 µg/mL)
- logD [4]: 2.54

SMILES: CC(=O)N[C@@H](CCCNC(=N)N)C(=O)NCCC(=O)N[C@@H](CCCCN=[N+]=[N-])C(=O)N[C@@H](CC(C)C)C(=O)N[C@H](C(=O)N[C@@H](Cc1ccccc1)C(=O)N[C@]1(C)CCCCCCC=CCCC[C@@](C)(C(=O)N[C@@H](CO)C(=O)N[C@@H](C)C(=O)N[C@@H](C)C(N)=O)NC(=O)[C@H](CC2CCC2)NC(=O)[C@H](CCC(N)=O)NC(=O)[C@H](C)NC(=O)[C@H](Cc2c[nH]c3ccccc23)NC(=O)[C@H](Cc2ccc(O)cc2)NC(=O)[C@H](CCC(=O)O)NC1=O)[C@@H](C)O [MP-4004]
- EC50 ([1]; LDH: Cytotoxicity assay: EC50): > 50 µM
- LDH: Cytotoxicity assay: % Effect [2]: 7.573%
- Solubility [3]: Poorly Behaved
- Partition Coeff LogD [4]: Poorly Behaved

SMILES: CC(=O)N[C@@H](CCCNC(=N)N)C(=O)NCCC(=O)N[C@@H](CC(C)C)C(=O)N[C@H](C(=O)N[C@@H](Cc1ccccc1)C(=O)N[C@]1(C)CCCCCCC=CCCC[C@@](C)(C(=O)N[C@@H](CO)C(=O)N[C@@H](C)C(=O)N[C@@H](C)C(N)=O)NC(=O)[C@H](CC2CCC2)NC(=O)[C@H](CCC(N)=O)NC(=O)[C@H](C)NC(=O)[C@H](Cc2c[nH]c3ccccc23)NC(=O)[C@H](Cc2ccc(O)cc2)NC(=O)[C@H](CCC(=O)O)NC1=O)[C@@H](C)O [MP-000]
- EC50 ([1]; LDH: Cytotoxicity assay: EC50): > 50 µM
- LDH: Cytotoxicity assay: % Effect [2]: 6.079%
- solubility kinetic [3]: 2 µM (≈ 3.94 µg/mL)
- logD [4]: 2.66

SMILES: CC(=O)N[C@@H](CCCNC(=N)N)C(=O)N[C@@H](CCCNC(=N)N)C(=O)NCCCCCC(=O)N[C@@H](CCCCN=[N+]=[N-])C(=O)N[C@@H](CC(C)C)C(=O)N[C@H](C(=O)N[C@@H](Cc1ccccc1)C(=O)N[C@]1(C)CCCCCCC=CCCC[C@@](C)(C(=O)N[C@@H](CO)C(=O)N[C@@H](C)C(=O)N[C@@H](C)C(N)=O)NC(=O)[C@H](CC2CCC2)NC(=O)[C@H](CCC(N)=O)NC(=O)[C@H](C)NC(=O)[C@H](Cc2c[nH]c3ccccc23)NC(=O)[C@H](Cc2ccc(O)cc2)NC(=O)[C@H](CCC(=O)O)NC1=O)[C@@H](C)O [MP-007]
- EC50 ([1]; LDH: Cytotoxicity assay: EC50): > 50 µM
- LDH: Cytotoxicity assay: % Effect [2]: 23.39%
- solubility kinetic [3]: 37 µM (≈ 86 µg/mL)
- logD [4]: 2.83

SMILES: CC(=O)N[C@@H](CCCCN=[N+]=[N-])C(=O)NCCC(=O)N[C@@H](CC(C)C)C(=O)N[C@H](C(=O)N[C@@H](Cc1ccccc1)C(=O)N[C@]1(C)CCCCCCC=CCCC[C@@](C)(C(=O)N[C@@H](C)C(=O)N(C)CC(=O)N(C)CC(=O)N(C)CC(=O)N(C)CC(=O)N(C)CC(N)=O)NC(=O)[C@H](CC2CCC2)NC(=O)[C@H](CCC(N)=O)NC(=O)[C@H](C)NC(=O)[C@H](Cc2c[nH]c3ccccc23)NC(=O)[C@H](Cc2ccc(O)cc2)NC(=O)[C@H](CCC(=O)O)NC1=O)[C@@H](C)O [MP-443] (Ac-[Lys(N3)][βAla]LTF[R8]EYWAQ[Cba][S5]A[Sar][Sar][Sar][Sar][Sar]-NH2; staple 6-13)
- EC50 ([1]; 0% FBS 4Hr, read-out: LDH: Cytotoxicity assay EC50): > 50.7 µM
- EC50 ([1]; 10% FBS 16Hr, read-out: LDH: Cytotoxicity assay EC50): > 50.7 µM
- LDH: Cytotoxicity assay % Effect ([2]; 0% FBS 4Hr): 8.392%
- LDH: Cytotoxicity assay % Effect ([2]; 10% FBS 16Hr): 2.311%
- solubility kinetic [3]: 180 µM (≈ 390 µg/mL)
